Measurements reported in patent US6706663B2, “Herbicidal 3-heterocyclic substituted benzisothiazole and benzisoxazole compounds” (Wyeth, priority 2000, dated 2004).

Columns and labels:
[1] = system: SAGPY (Sagittaria pygmaea); assay: Flooded paddy, preemergence weed control; format: in vivo, L.; details: rated 3-4 weeks after treatment, 0-9 rating scale
How it was run: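 Silt loam, sowing depth ≤0.5 cm; permanent flood 1.5–3 cm above soil; greenhouse culture after treatment. Readout: 0-9 visual scale (stand, vigor, malformation, size, chlorosis, appearance) vs control.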

ORYSAT (Rice, Tebonnet) [2] = assay: Preemergence herbicidal evaluation; format: in vivo, Oryza sativa, (L.) Tebonnet; details: preemergence, rated 4-5 weeks after treatment
[3] = system: ABUTH (Abutilon theophrasti); assay: Postemergence herbicidal evaluation; format: in vivo, Medic.
How it was run: (§1)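 Visual 0–9 injury scores versus control plants, covering stand, vigour, malformation, size, chlorosis and general appearance, taken four to five weeks post-spray and averaged over replicate tests. Plants were sprayed at roughly two weeks old and held on greenhouse benches.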

[4] = system: AMBEL (Ambrosia artemisifolia); assay: Preemergence herbicidal evaluation; format: in vivo, L.; details: preemergence, rated 4-5 weeks after treatment
How it was run: (§2)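 Rating 0–9, visual, vs control; 4–5 wk after spraying seeded cups with compound in aq. acetone; conventional greenhouse care.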

[5] = system: CHEAL (Chenopodium album); assay: Preemergence herbicidal evaluation; format: in vivo, L.; details: preemergence, rated 4-5 weeks after treatment
How it was run: as §2

[6] = system: CASOB (Cassia obtusifolia); assay: Preemergence herbicidal evaluation; format: in vivo, L.; details: preemergence, rated 4-5 weeks after treatment
How it was run: as §2

ZEAMX (Corn, Field) = assay: Postemergence herbicidal evaluation; format: in vivo, Zea mays, L.
How it was run: as §1

[7] = system: CYPSE (Cyperus serotinus); assay: Flooded paddy, preemergence weed control; format: in vivo, Rottb.; details: rated 3-4 weeks after treatment, 0-9 rating scale
How it was run: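 Seeds or propagules were planted 0.5 cm deep in silt loam and flooded to 1.5–3 cm. Compounds in 50/50 v/v aqueous/acetone were pipetted into the flood water at about 0.0080 to 0.1250 kg/ha. After 3–4 weeks in the greenhouse, effect was rated visually on a 0–9 scale versus untreated control.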

[8] = system: GLXMAW (Soybean, Williams); assay: Postemergence herbicidal evaluation; format: in vivo, Glycine max, (L.) Merr. cv Williams
How it was run: as §1

[9] = system: IPOHE (Ipomoea hederacea); assay: Preemergence herbicidal evaluation; format: in vivo, (L.) Jacq.; details: preemergence, rated 4-5 weeks after treatment
[10] = system: AMBEL (Ambrosia artemisifolia); assay: Postemergence herbicidal evaluation; format: in vivo, L.
How it was run: as §1

[11] = system: CHEAL (Chenopodium album); assay: Postemergence herbicidal evaluation; format: in vivo, L.
How it was run: as §1

[12] = system: CASOB (Cassia obtusifolia); assay: Postemergence herbicidal evaluation; format: in vivo, L.
How it was run: as §1

[13] = system: ABUTH (Abutilon theophrasti); assay: Preemergence herbicidal evaluation; format: in vivo, Medic.; details: preemergence, rated 4-5 weeks after treatment
[14] = system: TRZAWR (Wheat, Winter, cv Riband); assay: Preemergence herbicidal evaluation; format: in vivo, Triticum aestivum; details: preemergence, rated 4-5 weeks after treatment
How it was run: as §2

GALAP (Galium aparine) = assay: Postemergence herbicidal evaluation; format: in vivo
How it was run: as §1

ORYSAT (Rice, Tebonnet) [15] = assay: Flooded paddy, post-transplant rice tolerance; format: in vivo, Oryza sativa, (L.) Tebonnet; details: flooded paddy, post-transplant rice, rated 3-4 weeks after treatment, 0-9 rating scale
How it was run: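 Scores (0-9) reflect visual injury relative to untreated plants in flooded silt loam. Each pot held two transplanted ten-day-old seedlings under 1.5 to 3 cm standing water in the greenhouse.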

ORYSAT (Rice, Tebonnet) [16] = assay: Postemergence herbicidal evaluation; format: in vivo, Oryza sativa, (L.) Tebonnet
How it was run: as §1

[17] = system: ECHCG (Echinochloa crus-galli); assay: Postemergence herbicidal evaluation; format: in vivo, (L.) Beau
How it was run: as §1

Cc1csc(-c2nsc3ccc(-n4c(=O)cc(C(F)(F)F)n(C)c4=O)cc23)n1 [Compound 7, 1-methyl-3-[3-(4-methyl-2-thiazolyl)-1,2-benzisothiazol-5-yl]-6-(trifluoromethyl)uracil]
1.0: herbicidal rating, SAGPY ([1]; rate 0.1250 kg/ha)
2.0: Postemergence herbicidal rating, AMBEL ([10]; rate 0.0320 kg/ha) | TRZAWR preemergence herbicidal rating ([14]; Rate 0.1250 kg/ha) | TRZAWR preemergence herbicidal rating ([14]; Rate 0.2500 kg/ha) | Postemergence herbicidal rating, GALAP (GALAP (Galium aparine); rate 0.0320 kg/ha) | herbicidal rating, ORYSAT (rice tolerance) (ORYSAT (Rice, Tebonnet) [15]; rate 0.0320 kg/ha)
5.5: Postemergence herbicidal rating, GLXMAW ([8]; rate 0.1250 kg/ha)
3.0: CASOB preemergence herbicidal rating ([6]; Rate 0.1250 kg/ha) | Postemergence herbicidal rating, CASOB ([12]; rate 0.1250 kg/ha) | herbicidal rating, ORYSAT (rice tolerance) (ORYSAT (Rice, Tebonnet) [15]; rate 0.0080 kg/ha)
9.0: Postemergence herbicidal rating, ABUTH ([3]; rate 0.0320 kg/ha) | Postemergence herbicidal rating, ABUTH ([3]; rate 0.0620 kg/ha) | Postemergence herbicidal rating, ABUTH ([3]; rate 0.1250 kg/ha) | CHEAL preemergence herbicidal rating ([5]; Rate 0.0620 kg/ha) | CHEAL preemergence herbicidal rating ([5]; Rate 0.1250 kg/ha) | CHEAL preemergence herbicidal rating ([5]; Rate 0.2500 kg/ha) | CASOB preemergence herbicidal rating ([6]; Rate 0.2500 kg/ha) | IPOHE preemergence herbicidal rating ([9]; Rate 0.2500 kg/ha) | Postemergence herbicidal rating, AMBEL ([10]; rate 0.1250 kg/ha) | Postemergence herbicidal rating, CHEAL ([11]; rate 0.1250 kg/ha) | ABUTH preemergence herbicidal rating ([13]; Rate 0.0620 kg/ha) | ABUTH preemergence herbicidal rating ([13]; Rate 0.1250 kg/ha) | ABUTH preemergence herbicidal rating ([13]; Rate 0.2500 kg/ha) | Postemergence herbicidal rating, GALAP (GALAP (Galium aparine); rate 0.0620 kg/ha)
5.0: Postemergence herbicidal rating, ZEAMX (ZEAMX (Corn, Field); rate 0.0320 kg/ha) | Postemergence herbicidal rating, GLXMAW ([8]; rate 0.0320 kg/ha) | Postemergence herbicidal rating, GLXMAW ([8]; rate 0.0620 kg/ha) | herbicidal rating, ORYSAT (rice tolerance) (ORYSAT (Rice, Tebonnet) [15]; rate 0.1250 kg/ha) | Postemergence herbicidal rating, ORYSAT (ORYSAT (Rice, Tebonnet) [16]; rate 0.0620 kg/ha)
7.0: Postemergence herbicidal rating, GALAP (GALAP (Galium aparine); rate 0.1250 kg/ha) | Postemergence herbicidal rating, ORYSAT (ORYSAT (Rice, Tebonnet) [16]; rate 0.1250 kg/ha)
4.0: Postemergence herbicidal rating, AMBEL ([10]; rate 0.0620 kg/ha) | Postemergence herbicidal rating, CHEAL ([11]; rate 0.0320 kg/ha) | Postemergence herbicidal rating, CHEAL ([11]; rate 0.0620 kg/ha)
7.5: Postemergence herbicidal rating, ZEAMX (ZEAMX (Corn, Field); rate 0.1250 kg/ha)
0.0: herbicidal rating, SAGPY ([1]; rate 0.0080 kg/ha) | herbicidal rating, SAGPY ([1]; rate 0.0320 kg/ha) | ORYSAT preemergence herbicidal rating (ORYSAT (Rice, Tebonnet) [2]; Rate 0.0620 kg/ha) | ORYSAT preemergence herbicidal rating (ORYSAT (Rice, Tebonnet) [2]; Rate 0.1250 kg/ha) | ORYSAT preemergence herbicidal rating (ORYSAT (Rice, Tebonnet) [2]; Rate 0.2500 kg/ha) | AMBEL preemergence herbicidal rating ([4]; Rate 0.0620 kg/ha) | AMBEL preemergence herbicidal rating ([4]; Rate 0.1250 kg/ha) | AMBEL preemergence herbicidal rating ([4]; Rate 0.2500 kg/ha) | CASOB preemergence herbicidal rating ([6]; Rate 0.0620 kg/ha) | herbicidal rating, CYPSE ([7]; rate 0.0080 kg/ha) | herbicidal rating, CYPSE ([7]; rate 0.0320 kg/ha) | herbicidal rating, CYPSE ([7]; rate 0.1250 kg/ha) | IPOHE preemergence herbicidal rating ([9]; Rate 0.0620 kg/ha) | IPOHE preemergence herbicidal rating ([9]; Rate 0.1250 kg/ha) | Postemergence herbicidal rating, CASOB ([12]; rate 0.0320 kg/ha) | Postemergence herbicidal rating, CASOB ([12]; rate 0.0620 kg/ha) | TRZAWR preemergence herbicidal rating ([14]; Rate 0.0620 kg/ha) | Postemergence herbicidal rating, ECHCG ([17]; rate 0.0320 kg/ha) | Postemergence herbicidal rating, ECHCG ([17]; rate 0.0620 kg/ha) | Postemergence herbicidal rating, ECHCG ([17]; rate 0.1250 kg/ha)
4.5: Postemergence herbicidal rating, ORYSAT (ORYSAT (Rice, Tebonnet) [16]; rate 0.0320 kg/ha)
6.0: Postemergence herbicidal rating, ZEAMX (ZEAMX (Corn, Field); rate 0.0620 kg/ha)
